Assay [1] concerns IL-23p19. Put plainly: LPS induced IL23p19 in THP-1 cells (with IFNγ primed) assay. It counts as cell-based, Human. An excerpt: LPS Induced IL23p19 in THP-1 Cells (with IFNγ Primed) Assay
THP-1 Cells (ATCC, Cat#TIB-202), Dimethyl Sulfoxide (DMSO) (Sigma-Aldrich, Cat#D2650), RPMI 1640 (Cellgro, Cat#10-040-CM), Fetal Bovine Serum (Sigma, Cat#F4135), Albumin From Bovine Serum (BSA) (Sigma-Aldrich, Cat#A7906), LPS (Serotype K-235, Sigma, Product Number L 2143), IFNγ (Peprotech, Cat#300-02) Capture antibody: Human IL-23p19 ELISA (e-Bioscience, Cat. #14-7238-85), Detection antibody: Primary Mouse Biotinylated anti-human IL-12(p40/p70) (e-Bioscience, Cat. #13-7129-85), Secondary HRP-conjugated Streptavidin (R&D Systems, Cat#DY998), 1×PBST Washing Buffer (PBS-Tween tablet) (VWR International, Cat#80058-558), ELISA Blocking Buffer (PBS with 1% BSA), ELISA Dilution Buffer (PBS with 1% BSA), 384 Well Flat-Bottom, MaxiSorp Black Immuno Plates (Thermo Scientific, Cat#12-565-346), 384 Well Flat-Bottom, White Tissue Culture Plates (Thermo Scientific, Cat#12-565-343), Super Signal ELISA Pico Chemiluminescent Substrate (Thermo Scientific, Cat#37070), Cell Titer Glo reagent (Promega, Cat#G7573), Positive control, IKK2VI inhibitor (Calbiochem, Cat#401483), AquaMax 4000 plate washer (Molecular Devices), Luminometer, Wallac Victor2 1420 Multilabel Counter.
On day 1, 50K/well THP-1 cells were seeded and primed with IFNγ (50 ng/mL) in 384-well plates for about 18 hours in RPMI media with 10% FBS. On day 2, the compound was serially diluted in DMSO from 5 mM in 3-fold dilutions, and then diluted 1:125 in RPMI media with 10% FBS. 50 μL/well 2× compound was added to 50 μL/well THP-1 cells (with IFNγ primed) in duplicate in 384 well tissue culture plates. The cells were pre-incubated with compound for 1 hour at 37° C., 5% CO2 before addition of 10 μL/well 11×LPS to give a final concentration of 1 ug/mL LPS. Day 3, after stimulation for 18 hours at 37° C., 5% CO2, the assay plate was centrifuged and 70 μL/well supernatant was harvested. IL-23p19 protein in 70 μL/well of supernatant was measured by sandwich ELISA, and 25 μl/well Cell Titer Glo reagent was added to the remaining cells to measure compound toxicity.
Maxisorp immuno ELISA plates were pre-coated with 25 μL/well of anti-IL-23p19 capture antibody (2.5 ug/mL) in PBS overnight at room temperature. After washing with 1× PBST, the plates were blocked using 100 μL/well of 1% BSA in PBS for 2 hours at room temperature. The plates were washed three times with 1×PBST and 70 μL/well supernatant were added. The plates were incubated at room temperature for 2 hours with shaking and washed three times with 1×PBST. 25 μL/well of biotin labeled anti-IL-12(p40/p70) detection antibody (100 ng/mL) in PBS with 1% BSA was added and the plates were incubated at room temperature for 2 hours with shaking. After washing three times with 1×PBST, 25 μL/well of streptavidin-HRP (1:200) in PBS with 1% BSA was added and the plates were incubated at room temperature for 20 minutes with shaking. The plates were washed three times with 1× PBST and 25 μL/well of Super Signal ELISA Pico Chemiluminescent Substrate were added. The plates were read with a luminometer, and the chemiluminescence values were entered into Athena (Rigel) for curve fitting, EC50 calculation, and database storage.

Assay [2] relates to IL-23 (p19/p40). Put plainly: IL23-p19 ELISA, Dendritic, LPS (compound screening using DC cells). In kind it is cell-based, Human. As for the experimental part: Compound Screening Using DC Cells
Human PBMC cells (400 million) obtained from the vendor were transferred into a T-175 flask containing 15 ml RPMI media (10% FBS) and incubate for 2 hours at 37° C. After 2 hours, the media including floating cells was aspirated out carefully and 12 ml of fresh RPMI media (10% FBS) containing GMCSF (100 ng/ml) and IL4 (20 ng/ml) was added, and the flask was kept in a 37° C. incubator for 7 days.
After 3 days, fresh GMCSF (100 ng/ml) and IL4 (20 ng/ml) were added to the flask and the incubation continued. After 7 days, the fully differentiated cells were harvested by spinning down (1200 rpm/5 min) and aspirating the media. The cells were suspended in fresh RPMI media (10% FBS) containing 50 ng/ml IFNγ (1000 U/ml) and then plated (50K/well in 100 μl) onto a white clear bottom 96 well plate and left in a 37° C. incubator for 24 hours.
After 24 hours incubation, 100 μl of RPMI media was added containing 2× concentrated test compound per well to the above cell-culture media (final concentration becomes 1×) and the plates were pre-incubated for 1 hour at 37° C. before stimulating with LPS.
After 1 hour compound pre-incubation, 10 piper well of 20× concentrated LPS solution in RPMI media was added to give a final concentration of 1 μg/ml. The mixture was shaken and incubated the plates at 37° C. for an additional 18 hours.
155 μl of the supernatant was harvested from each well carefully (without the tip touching the bottom of the well) and to the remaining 50 μl/well of the cell culture plate was added 50 μl of Cell Titer Glo reagent. The mixture was incubated for 1-2 minutes on a shaker and the plate was read for luminescence intensity to determine the compound cytotoxicity. The cell culture supernatant collected above was used to carry out IL23 ELISA (65 μl -Supernatant) and IL10 ELISA (90 μl—Supernatant) as described below.
Human IL-23 (p19/p40) ELISA Protocol (e-Biosciences)
To 10.5 ml PBS add 50 μl of anti-IL23 (p19) was added capture antibody (2.5 μg/ml). The mixture was mixed well and 100 μl of the coating solution was added to each well of the 96 well white plates from Pierce. The wells were covered and incubated overnight at 4° C.
The anti-IL23 (p19)-antibody-coated plates were washed 2× using TBST (use plate washer) and blocked using 200 μl of 0.5% Casein for 1.5-2 hours at room temperature with shaking.
The plates were washed 2× using TBST and the supernatant was transferred (65 μl/well) to the above pre-blocked/IL23(p19)-antibody-coated 96 well plate, and incubated at room temperature for 1.5 hours with shaking.
The plates were washed 4× using TBST (plate washer) and 100 μl/well detection antibody solution prepared from 2 μl of biotin labeled anti-IL-12 (p40/p70) antibody in 11 ml 1% BSA/PBS solution (1-5000 dilution) was added. The plates were incubated for 1 hour with shaking at Room temperature.
Again, the plates were washed 4× with TBST and 100 μl of HRP labeled Streptavidin (R&D Systems) solution (10 μl/10 ml 1% BSA solution) was added, and the plates were incubated at room temperature for another 45 minutes with shaking.
After 45 minutes, the plates were washed with TBST 4× and 100 ul/well Super Signal ELISA Pico Chemiluminescent Substrate from Pierce (3.5 ml A+3.5 ml B+3.5 ml MQ water) was added. The plates were shaken for 1-2 minutes then read on a plate reader.
A general note: ELISA stands for enzyme-linked immunosorbent assay.

Where [3] appears, read: Homo sapiens, THP-1, 18 h, THP-1 cells, IFNγ primed, LPS 1 ug/mL, 18 hours, 10 pt, read-out: IL23-p19 ELISA, THP1-IFNy, LPS, 10 pt EC50.
Where [4] appears, read: Homo sapiens, 18 h, PBMC-derived DC cells, IFNγ primed, LPS 1 μg/ml, 18 hours, 10 pt, read-out: IL23-p19 ELISA, Dendritic, LPS, 10 pt, EC50.

The record followed here is patent publication US10208074B2, “Pyrazole compounds and method for making and using the compounds” (Rigel Pharmaceuticals, Inc., priority 2015, dated 2019).

Where a name gives a salt, the structure may show the parent alone. Read-outs that look alike come from different tables or passages of the source.

A word on the EC50: it is the concentration that produces a half-maximal response. Consider `Cc1n[nH]cc1-c1ccc(C(=O)Nc2cn(C3COC3)nc2-c2ccccn2)o1` [Compound I-30, 5-(3-methyl-1H-pyrazol-4-yl)-N-(1-(oxetan-3-yl)-3-(pyridin-2-yl)-1H-pyrazol-4-yl)furan-2-carboxamide], for which the figures for the EC50 in assay [1] (setting [3]) and in assay [2] (setting [4]) were 0.038 µM and 0.0589 µM, respectively.

As to `COCCn1cc(NC(=O)c2ccc(-c3c[nH]nc3C(F)(F)F)o2)c(-c2ccccn2)n1` [Compound I-13, N-(1-(2-methoxyethyl)-3-(pyridin-2-yl)-1H-pyrazol-4-yl)-5-(3-(trifluoromethyl)-1H-pyrazol-4-yl)furan-2-carboxamide], the EC50 in assay [1] (setting [3]) was 136 µM; in assay [2] (setting [4]), 11 µM.

`CCOCCn1cc(NC(=O)c2csc(-c3c[nH]nc3C)n2)c(-c2ccccn2)n1` [II-31, N-(1-(2-ethoxyethyl)-3-(pyridin-2-yl)-1H-pyrazol-4-yl)-2-(3-methyl-1H-pyrazol-4-yl)thiazole-4-carboxamide]: the EC50 in assay [1] (THP-1 cells, IFNγ primed, LPS 1 ug/mL, 18 hours, 10 pt, read-out: IL23-p19 ELISA, THP1-IFNy, LPS, 10 pt EC50) worked out at 0.17 µM; in assay [2] (PBMC-derived DC cells, IFNγ primed, LPS 1 μg/ml, 18 hours, 10 pt, read-out: IL23-p19 ELISA, Dendritic, LPS, 10 pt, EC50), 0.799 µM.

Consider `Cn1cc(-c2ccc(C(=O)Nc3cn(C4COC4)nc3-c3ccccn3)o2)cn1` [Compound I-26, 5-(1-methyl-1H-pyrazol-4-yl)-N-(1-(oxetan-3-yl)-3-(pyridin-2-yl)-1H-pyrazol-4-yl)furan-2-carboxamide], for which the EC50 in assay [1] (setting [3]) was 1.32 µM; in assay [2] (setting [4]), 0.276 µM.

`O=C(Nc1cn(C2CCOCC2)nc1-c1nnco1)c1csc(-c2cn[nH]c2)n1` [II-75, N-(3-(1,3,4-oxadiazol-2-yl)-1-(tetrahydro-2H-pyran-4-yl)-1H-pyrazol-4-yl)-2-(1H-pyrazol-4-yl)thiazole-4-carboxamide]: the EC50 in assay [1] (setting [3]) worked out at 2.49 µM; in assay [2] (setting [4]), 0.537 µM.

Turning to `Cn1cc(-c2ccc(C(=O)Nc3cn(CC(C)(C)O)nc3-c3ccccn3)o2)cn1` [Compound I-1, N-(1-(2-hydroxy-2-methylpropyl)-3-(pyridin-2-yl)-1H-pyrazol-4-yl)-5-(1-methyl-1H-pyrazol-4-yl)furan-2-carboxamide 2,2,2-trifluoroacetate], the EC50 was 5.66 µM in assay [1] (Homo sapiens, THP-1, 18 h, read-out: IL23-p19 ELISA, THP1-IFNy, LPS, 10 pt EC50 (μM)) and 3.73 µM in assay [2] (Homo sapiens, 18 h, read-out: IL23-p19 ELISA, Dendritic, LPS, 10 pt, EC50 (μM)).

As to `Cn1cc(NC(=O)c2ccc(-c3cn[nH]c3)o2)c(-c2ccc(OCC(C)(C)O)cn2)n1` [Compound I-107, N-(3-(5-(2-hydroxy-2-methylpropoxy)pyridin-2-yl)-1-methyl-1H-pyrazol-4-yl)-5-(1H-pyrazol-4-yl)furan-2-carboxamide], the EC50 stood at 0.86 µM in assay [1] (setting [3]) and 0.305 µM in assay [2] (setting [4]).

For `COCCn1cc(NC(=O)c2ccc(-c3c[nH]nc3C)o2)c(-c2ncccn2)n1` [Compound I-8, N-(1-(2-methoxyethyl)-3-(pyrimidin-2-yl)-1H-pyrazol-4-yl)-5-(3-methyl-1H-pyrazol-4-yl)furan-2-carboxamide], the EC50 was determined as 0.88 µM in assay [1] (setting [3]) and 0.429 µM in assay [2] (setting [4]).

For `O=C(Nc1cn([C@H]2C[C@@H](OCC(F)(F)F)C2)nc1-c1ncccc1F)c1ccc(-c2cn[nH]c2)o1` [Compound I-152, N-(3-(3-fluoropyridin-2-yl)-1-((1s,3s)-3-(2,2,2-trifluoroethoxy)cyclobutyl)-1H-pyrazol-4-yl)-5-(1H-pyrazol-4-yl)furan-2-carboxamide formate], the values for the EC50 in assay [1] (setting [3]) and in assay [2] (setting [4]) were 0.0319 µM and 0.0716 µM, respectively.

With `N#Cc1nn([C@H]2C[C@@H](O)C2)cc1NC(=O)c1csc(-c2cn[nH]c2)n1` [II-136, N-(3-cyano-1-((1s,3s)-3-hydroxycyclobutyl)-1H-pyrazol-4-yl)-2-(1H-pyrazol-4-yl)thiazole-4-carboxamide], the results for the EC50 in assay [1] (setting [3]) and in assay [2] (setting [4]) were 1.22 µM and 10.7 µM, respectively.

Regarding `CC(=O)N1CC(n2cc(NC(=O)c3ccc(-c4cn[nH]c4)o3)c(-c3ccccn3)n2)C1` [Compound I-83, N-{1-(1-Acetylazetidin-3-yl)-3-(pyridine-2-yl)-1H-pyrazol-4-yl}-5-(1H-pyrazol-4-yl)furan-2-carboxamide, free base], the 50% effective concentration (EC50) in assay [1] (setting [3]) worked out at 0.0348 µM; in assay [2] (setting [4]) it was 0.0932 µM.

`Cn1cc(NC(=O)c2ccc(-c3cn[nH]c3)o2)c(-c2ccc(N3CCOCC3)cn2)n1` [Compound I-105, N-(1-methyl-3-(5-morpholinopyridin-2-yl)-1H-pyrazol-4-yl)-5-(1H-pyrazol-4-yl)furan-2-carboxamide]: the EC50 in assay [2] (setting [4]) is 0.0265 µM.

On to `CCO[C@H]1C[C@@H](n2cc(NC(=O)c3csc(-c4c[nH]nc4C)n3)c(-c3ccccn3)n2)C1` [II-92, N-(1-((1,3-cis)-3-ethoxycyclobutyl)-3-(pyridin-2-yl)-1H-pyrazol-4-yl)-2-(3-methyl-1H-pyrazol-4-yl)thiazole-4-carboxamide], for which, in assay [2] (setting [4]), the EC50 turned out to be 0.258 µM.
